Assay results from PubChem BioAssay AID2060506 (Molecular Pharmacology Branch, DTP, NCI, 2025).

Test system: 598228-144-R-J1-PDC complex spheroid viability
Test: Anticancer human tumor 598228-144-R-J1-PDC patient-derived serous endometrial adenocarcinoma cell line growth inhibition [GQUAD]
Settings: for IC50: curve of first compound; for viability, T/C: stronger effect = lower value
From the text: DNA G-quadruplex Stabilizer Agents in Combinations in Complex Spheroids
A high-throughput screen of multi-cell type tumor spheroids was designed to identify active combinations of DNA G-quadruplex stabilizer agents and targeted small molecules. Complex spheroids include a stromal component modeled by human endothelial cells (HUVEC) and fibroblasts modeled by human mesenchymal stem cells (MSCs). The concentration ranges selected for each drug and investigational agent were based upon clinically achievable concentrations if the clinical Cmax of the agent was known.
Compounds. The drugs and investigational agents: pidnarulex (CX-5461; NSC782164), APTO-253 (NSC789042), BRACO-19 (NSC847499), peposertib (NSC802822), ceralasertib (NSC780249), elimusertib (NSC800525), camonsertib (NSC841442), AZD-1390 (NSC803789), olaparib (NSC753686), talazoparib (NSC767125), ART-558 (NSC835418), sotorasib (NSC818433), MRTX-1133 (NSC836407), SN-38 (NSC673596), topotecan (NSC609699), etoposide (NSC141540), doxorubicin (NSC123127), gemcitabine (NSC613327), 5-fluorouracil (NSC19893), paclitaxel (NSC125973), vemurafenib (NSC761431), panobinostat (NSC761190), R-306465 (JNJ-16241199; NSC773264), adavosertib (NSC754352), TP-3654 (NSC805149), carboplatin (NSC241240), KSQ-4279 (NSC840948), and staurosporine (NSC755774) were obtained from the National Cancer Institute (NCI) Developmental Therapeutics Program Chemical Repository (34). The FDA-approved anticancer drug set is available from the NCI Developmental Therapeutics Program. […] The stock solutions were prepared in dimethyl sulfoxide (DMSO, Sigma-Aldrich, St. Louis, MO, cat. D2650) at 800-fold the tested concentration and stored at -70 degrees C prior to their use. All drugs and investigational agents were tested over a range starting from a high concentration at or near the clinical Cmax and decreasing in half-log increments. If the clinical Cmax for an agent had not been determined, the highest concentration tested was 10 microM.
2.3 Cell Culture. All cells were maintained in an incubator at 37 degrees C and 5% CO2 with 95% humidity. The PDC lines were cultured according to standard operating procedures established by the NCI PDMR. All PDCs were thawed and cultured in Matrigel-coated flasks prepared with a working solution of 1X Ham's F-12 nutrient mix, without supplementation (Invitrogen, cat. 11765054), 100 U/mL penicillin-streptomycin (Invitrogen, cat. 15140122), and 2.5% Matrigel (Corning Inc., cat. 354248) for the first three passages. The 857933-349-R-J2-PDC line was cultured in 6C/Colon 1B media, which includes advanced DMEM/F-12 (Thermo Fisher Scientific, cat. 12634028), 10 mM HEPES (Thermo Fisher Scientific, cat. 15630080), 1X GlutaMAX supplement (Thermo Fisher Scientific, cat. 35050061), 0.1 mg/mL primocin (InvivoGen, cat. ant-pm-2), 10% defined fetal bovine serum, heat inactivated (HyClone Laboratories Inc., cat. SH30070.03HI), 50% L-WRN conditioned media (ATCC, cat. CRL-3276), 1.25 mM N-Acetyl-L-cysteine (Sigma-Aldrich, cat. A9165), 10 mM nicotinamide (Sigma-Aldrich, cat. N0636), 1X B-27 supplement (Thermo Fisher Scientific, cat. 17504044), 1X N-2 supplement (Thermo Fisher Scientific, cat. 17502048), 10 microM Y-27632 dihydrochloride (Tocris Bioscience, cat. 1254), and 50 ng/mL human EGF recombinant protein (Thermo Fisher Scientific, cat. PHG0311). The 485176-168-R4-J1-PDC line was cultured in Panc media, which includes all 6C/Colon 1B media components plus 100 ng/mL human FGF-10 (Thermo Fisher Scientific, cat. 100-26), 500 nM SB-431542 (Selleckchem, cat. S1067), and gastrin (Tocris, cat. 3006).
[…]

[1] = second compound 0.0316 µM, first compound 0.000999 µM
[2] = second compound 0.0316 µM, first compound 0.00316 µM
[3] = second compound 0.0316 µM, first compound 0.00999 µM
[4] = second compound 0.0316 µM, first compound 0.0316 µM
[5] = second compound 0.0316 µM, first compound 0.0999 µM
[6] = second compound 0.0316 µM, first compound 0.316 µM
[7] = second compound 0.1 µM, first compound 0.000999 µM
[8] = second compound 0.1 µM, first compound 0.00316 µM
[9] = second compound 0.1 µM, first compound 0.00999 µM
[10] = second compound 0.1 µM, first compound 0.0316 µM
[11] = second compound 0.1 µM, first compound 0.0999 µM
[12] = second compound 0.1 µM, first compound 0.316 µM
[13] = second compound 0.316 µM, first compound 0.000999 µM
[14] = second compound 0.316 µM, first compound 0.00316 µM
[15] = second compound 0.316 µM, first compound 0.00999 µM
[16] = second compound 0.316 µM, first compound 0.0316 µM
[17] = second compound 0.316 µM, first compound 0.0999 µM
[18] = second compound 0.316 µM, first compound 0.316 µM
[19] = second compound 1 µM, first compound 0.000999 µM
[20] = second compound 1 µM, first compound 0.00316 µM
[21] = second compound 1 µM, first compound 0.00999 µM
[22] = second compound 1 µM, first compound 0.0316 µM
[23] = second compound 1 µM, first compound 0.0999 µM
[24] = second compound 1 µM, first compound 0.316 µM
[25] = second compound 3.16 µM, first compound 0.000999 µM
[26] = second compound 3.16 µM, first compound 0.00316 µM
[27] = second compound 3.16 µM, first compound 0.00999 µM
[28] = second compound 3.16 µM, first compound 0.0316 µM
[29] = second compound 3.16 µM, first compound 0.0999 µM
[30] = second compound 3.16 µM, first compound 0.316 µM
[31] = second compound 10 µM, first compound 0.000999 µM
[32] = second compound 10 µM, first compound 0.00316 µM
[33] = second compound 10 µM, first compound 0.00999 µM
[34] = second compound 10 µM, first compound 0.0316 µM
[35] = second compound 10 µM, first compound 0.0999 µM
[36] = second compound 10 µM, first compound 0.316 µM
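Further: spheroids exposed to the agents for one week before reading.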
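Wherever viability, T/C is given: percent of vehicle DMSO control viability so 100% = untreated growth.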

SMILES: CC[C@@]1(O)C(=O)OCc2c1cc1n(c2=O)Cc2cc3c(CN(C)C)c(O)ccc3nc2-1 + CN(C)c1ccc(Nc2c3ccc(NC(=O)CCN4CCCC4)cc3nc3cc(NC(=O)CCN4CCCC4)ccc23)cc1
- IC50 (second compound 0.0316 µM): > 316 nM
- IC50 (second compound 0.1 µM): > 316 nM
- IC50 (second compound 0.316 µM): 97.7 nM
- IC50 (second compound 1 µM): 87 nM
- IC50 (second compound 3.16 µM): 225 nM
- IC50 (second compound 10 µM): 75.7 nM
- viability, T/C [1]: 84.4%
- viability, T/C [2]: 84.2%
- viability, T/C [3]: 105%
- viability, T/C [4]: 91.4%
- viability, T/C [5]: 54.6%
- viability, T/C [6]: 59.4%
- viability, T/C [7]: 99.4%
- viability, T/C [8]: 95.9%
- viability, T/C [9]: 95.3%
- viability, T/C [10]: 75.5%
- viability, T/C [11]: 56.6%
- viability, T/C [12]: 56.5%
- viability, T/C [13]: 95.8%
- viability, T/C [14]: 104%
- viability, T/C [15]: 101%
- viability, T/C [16]: 72.8%
- viability, T/C [17]: 48.5%
- viability, T/C [18]: 50.5%
- viability, T/C [19]: 84.3%
- viability, T/C [20]: 91.8%
- viability, T/C [21]: 92%
- viability, T/C [22]: 102%
- viability, T/C [23]: 42.6%
- viability, T/C [24]: 45.8%
- viability, T/C [25]: 97.8%
- viability, T/C [26]: 89.9%
- viability, T/C [27]: 86.4%
- viability, T/C [28]: 94.6%
- viability, T/C [29]: 57.5%
- viability, T/C [30]: 46.8%
- viability, T/C [31]: 66.9%
- viability, T/C [32]: 90.9%
- viability, T/C [33]: 81.5%
- viability, T/C [34]: 62.6%
- viability, T/C [35]: 48.5%
- viability, T/C [36]: 42.3%

SMILES: Cc1[nH]c2ccccc2c1CCNCc1ccc(/C=C/C(=O)NO)cc1 + CN(C)c1ccc(Nc2c3ccc(NC(=O)CCN4CCCC4)cc3nc3cc(NC(=O)CCN4CCCC4)ccc23)cc1
- IC50 (second compound 0.0316 µM): 38.7 nM
- IC50 (second compound 0.1 µM): 48.5 nM
- IC50 (second compound 0.316 µM): 54.1 nM
- IC50 (second compound 1 µM): 43 nM
- IC50 (second compound 3.16 µM): 44.3 nM
- IC50 (second compound 10 µM): 19.6 nM
- viability, T/C [1]: 113%
- viability, T/C [2]: 94.7%
- viability, T/C [3]: 103%
- viability, T/C [4]: 46.6%
- viability, T/C [5]: 29.1%
- viability, T/C [6]: 1.08%
- viability, T/C [7]: 91.7%
- viability, T/C [8]: 107%
- viability, T/C [9]: 86%
- viability, T/C [10]: 64.7%
- viability, T/C [11]: 25.8%
- viability, T/C [12]: 0.89%
- viability, T/C [13]: 114%
- viability, T/C [14]: 96.8%
- viability, T/C [15]: 95.7%
- viability, T/C [16]: 70.7%
- viability, T/C [17]: 26.9%
- viability, T/C [18]: 0.69%
- viability, T/C [19]: 96.9%
- viability, T/C [20]: 120%
- viability, T/C [21]: 91.2%
- viability, T/C [22]: 59.1%
- viability, T/C [23]: 23.5%
- viability, T/C [24]: 2.25%
- viability, T/C [25]: 99.9%
- viability, T/C [26]: 103%
- viability, T/C [27]: 87.9%
- viability, T/C [28]: 66.7%
- viability, T/C [29]: 13.9%
- viability, T/C [30]: 0.99%
- viability, T/C [31]: 82.3%
- viability, T/C [32]: 102%
- viability, T/C [33]: 70.5%
- viability, T/C [34]: 33.6%
- viability, T/C [35]: 8.01%
- viability, T/C [36]: 0.44%
